Here are results for one molecule from patent US20230039836A1, “AROMATIC SULPHONAMIDES DERIVATIVES THAT INHIBITS PDI A3, THEIR SYNTHESIS AND USE” (Uniwersytet Jagiellonski, priority 2020, published 2023).

In brackets after ≈: the same amount, converted by molar mass.

Data set [1] relates to MCF-7. The experiment in a line: Sulforhodamine B antiproliferative assay, 72 h, normal and hypoxia. To be noted: Homo sapiens, MCF7; hypoxia (<1% of oxygen), 72-hour exposition; read-out: IC50 [µg/ml] MCF-7 hypoxia. It is filed as cell-based, human. The method, boiled down: (§1)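 Cells at 10^5 cells/mL were given four concentrations within 0.1-100 ug/mL for 72 h at 37° C., under 21% O2 (normal) or <1% O2 (hypoxia). Growth read by sulforhodamine B staining after TCA fixation (A540); MTT (A570) was used for estradiol (200 nM) runs. Mean IC50 ± SD from ≥3 independent triplicate experiments.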
In general terms: Sulforhodamine B stains cellular protein and so reports cell mass.

The test system of data set [2] is MDA-MB-231. Described as above. The data set is classed as cell-based, human. The following applies: Homo sapiens, MDA-MB-231, 72-hour exposition. The gist of the method:
as §1

Data set [3] relates to HT-29. The experiment in a line: Sulforhodamine B antiproliferative assay, 72 h. The data set is classed as cell-based, human. The following applies: Homo sapiens, HT-29; normal (21% of oxygen), 72-hour exposition. The method, boiled down: as §1
In data set [4] the test system is MCF-7. In words: MTT antiproliferative assay, 72 h, with or without estradiol. The data set is classed as cell-based, human. The following applies: 72 hours exposition; for IC50: Homo sapiens, MCF7, MTT. As to the method: (§2) Anticancer activity of PDI A1-inhibitors has been also tested in vitro in antiproliferative essay in normoxic and hypoxic conditions as well in estrogen-stimulated cancer cells. In the experiment, cells were seeded on 96-well plates (Sarstedt, Germany) in appropriate culture medium at a density of 10^5 cells/mL 24 h before adding the tested compounds. Cells were treated with each compound in four concentrations in the range 0.1-100 ug/mL. […] After 72 h of compound treatment at 37° C., 5 % CO2 humid atmosphere and in wo different oxygen level conditions: 21% - normal and <1% - hypoxia. In some experiments, the MDA-MB-231 and MCF-7 cells were seeded with or without 200 nM estradiol and after 24 h the tested compounds were added. A previously described sulforhodamine B antiproliferative assay was used with minor modifications (Skehan P et al., 1990). Briefly, cells were fixed with 50 µL/well of 50% (w/v) trichloroacetic acid (Avantor Performance Materials, Gliwice, Poland). After 1 h incubation, plates were washed several times with tap water and 50 µL of 0.4% (w/v) solution of sulforhodamine B (Sigma-Aldrich, Germany) in 1% (v/v) acetic acid (Avantor Performance Materials, Gliwice, Poland) was added to each well. After 30 min incubation at room temperature, unbound dye was washed out with 1% (v/v) acetic acid, whereas bound dye was solubilized with 10 mM unbuffered TRIS (Avantor Performance Materials, Gliwice, Poland) solution. The entire procedure was performed using a BioTek EL-406 washing station (BioTek Instruments, USA). After additional 30 min, absorbance was read using a Biotek Hybrid H4 reader (BioTek Instruments, USA) at 540 nm wavelength. MTT assay was used alternatively for HL-60 cell line and in the experiment in which estrogens are added (specified in the table legend). Absorbance was measured using a Biotek Hybrid H4 reader at 570 nm wavelength for MTT assay.
(§3) Compounds at each concentration were tested in triplicate in a single experiment and each experiment was repeated at least three times independently.
(§4) Results of in vitro antiproliferative effects are shown in Table 3 and Table 4 and are presented as mean IC50 ± SD calculated using the Prolab-3 system based on Cheburator 0.4 software.
(§5) Statistical analysis: Unpaired t test. *p<0.05 as compared to appropriate cells not pretreated with estradiol. MTT assay was used for antiproliferative activity assessment.
In general terms: Tetrazolium dyes change colour on reduction, which living cells bring about.

Data set [5] concerns MDA-MB-231. Described as above. The data set is classed as cell-based, human. To be noted: Homo sapiens, MDA-MB-231, 72 hours exposition, MTT. As for the experimental part:
as §2, §3, §4, §5

A further data set has as its system HL-60. The experiment in a line: MTT antiproliferative assay, 72 h. It is filed as cell-based. The following applies: Homo sapiens, 72 hours exposition, read-out: IC50 [µg/ml] HL-60 normal. As for the experimental part:
as §2, §3, §4, §5

The subject of data set [6] is HT-29. The experiment in a line: MTT antiproliferative assay, 72 h. To be noted: Homo sapiens, 72 hours exposition, read-out: IC50 [µg/ml] HT-29 normal. It is filed as cell-based. As to the method: as §2, §3, §4, §5
For data set [7], the system named is HT-29. The experiment in a line: Long-term colony formation assay. The data set is classed as cell-based, human. To be noted: treated at IC50 dose, colonies after 2 weeks; FIGS. 1A and 1B. As to the method:
To confirm, anticancer effects, selected compounds of invention, PDIA1 inhibitors were tested in long-term colony formation assay. For long-term colony formation assay the human colorectal carcinoma cell lines Caco-2 and HT-29 were maintained as follows: HT-29 in RPMI-1640 with HEPES + OPTI-MEM (1:1) and Caco-2 in Eagle’s medium (all from IIET, Wroclaw, Poland) both culture media were supplemented with 2 mM L-glutamine, 1 mM sodium pyruvate (both from Sigma-Aldrich Chemie GmbH, Steinheim, Germany), fetal bovine serum: 5% HT-29 (GE Healthcare), 20% Caco-2 (Sigma-Aldrich Chemie GmbH, Steinheim, Germany), 100 U/ml penicillin, 100 µg/ml streptomycin (both from Polfa Tarchomin S.A., Warsaw, Poland). All cell lines were grown at 37° C. in a humidified atmosphere with 5% CO2. […] The viable cells were counted using a hemocytometer (trypan blue exclusion method) and seeded in triplicates at a density of 5 × 10^2 cells/3 ml and 2.5 × 10^2 cells/3 ml (9.5 cm^2) for Caco-2 and HT-29 respectively. […] After 2 weeks, the colonies were fixed and stained with 1% crystal violet/ethanol (Sigma-Aldrich), documented with Sony Alpha 300 camera (Sony), and counted manually using ImageJ 1.47 software (National Institutes of Health, Bethesda, MD, USA). Surviving fraction (SF) was calculated. […]

The subject of data set [8] is HT-29. The experiment in a line: Cell cycle and cell death analysis. The data set is classed as cell-based, human. As for the experimental part: Cell cycle and cell death analysis has been performed as previously described (Milczarek M et al. , 2015). Compounds were tested 5 times independently. Obtained results were analyzed using BD FACSDiva 6.2 software.
A further data set has as its system Caco-2. In words: Caspase-3/7 activity assay. It is filed as cell-based, human. The following applies: after 48 h treatment; compared to control. As to the method:
(§6) Caspase-3/7 activity assay has been performed as previously described (Milczarek M et al., 2015) after 24 and 48 h of incubation with disclosed compounds. Compounds were tested in triplicate in a single experiment and each experiment was repeated three times independently. Results were normalized to the protein content using the SRB method and reported as mean relative caspase-3/7 activity compared to the control sample ± SD.

The subject of data set [9] is HT-29. The experiment in a line: Caspase-3/7 activity assay. It is filed as cell-based, human. To be noted: after 24 and 48 h of incubation; compared to control. As for the experimental part: as §6

As for `COC(=O)C1CN1S(=O)(=O)c1ccccc1` (stereo not shown) [Compound C-3251, Methyl 1-(benzenesulfonyl)aziridine-2-carboxylate], the IC50 in the data set with MCF-7 [1] came out at 7.9 ± 6.5 µg/mL (≈ 32.7 µM); in the data set on MDA-MB-231 [2] (hypoxia (<1% of oxygen), read-out: IC50 [µg/ml] MDA-MB-231 hypoxia), 26.5 ± 1.3 µg/mL (≈ 110 µM); in the data set on MDA-MB-231 [2] (normal (21% of oxygen), read-out: IC50 [µg/ml] MDA-MB-231 normal), 24 ± 6.4 µg/mL (≈ 99.5 µM); in the data set on HT-29 [3] it was 30.2 ± 4.7 µg/mL (≈ 125 µM); in the data set with MCF-7 [4] (200 nM estradiol, read-out: IC50 [µg/ml] MCF-7 + estradiol), 4 ± 0.2 µg/mL; in the data set with MCF-7 [4] (not pretreated with estradiol, read-out: IC50 [µg/ml] MCF-7 normal), 3.9 ± 0.5 µg/mL (≈ 16.2 µM). For the same molecule, the IC50 in the data set with MDA-MB-231 [5] (200 nM estradiol, read-out: IC50 [µg/ml] MDA-MB-231 + estradiol) came to 29.7 ± 1.9 µg/mL; in the data set with MDA-MB-231 [5] (not pretreated with estradiol, read-out: IC50 [µg/ml] MDA-MB-231 normal), 26.6 ± 2.3 µg/mL (≈ 110 µM); in the data set with HL-60, 1.5 ± 0.1 µg/mL (≈ 6.22 µM); with HT-29 [6] it was 37.2 ± 8.4 µg/mL (≈ 154 µM). In addition, the “Selectivity index (SI): IC50 of MCF-10A/ IC50 of MCF-7” value with MCF-7 [4] was determined as 6.62. For the same molecule, the “Inhibition of long-term colonies formation, HT-29” value with HT-29 [7] is given as “much potent towards HT-29 than CaCo-2 cell line”. In the data set on HT-29 [8] (FIG. 1C), the “Cell cycle distribution, HT-29” value is “decreased HT-29 cells in G0/G1 and increased in G2/M phase”. In addition, the “Percentage of death cells, HT-29” value in the data set on HT-29 [8] (FIG. 1D) is recorded as “increased significantly the percentage of death HT-29 cells”. Further, in the data set with Caco-2, the “Caspase 3/7 activity, Caco-2” value is “significantly increase caspase 3/7 activity”. For the same molecule, the “Caspase 3/7 activity, HT-29” value in the data set with HT-29 [9] is on record as “significantly increase caspase 3/7 activity”.
